One data set concerns intestine peristaltis. The data set is described as follows: spasmolytic activity in vivo: activity on intestine peristaltis (mouse). The text has this: Activity of C/63 on intestine peristaltis (mouse)
A further data set is described as follows: acute toxicity, rats. To be noted: rat, in vivo, po, os, read-out: DL/50 (the source's name).
A further data set deals with Shay ulcer. The data set is described as follows: Anti-ulcer activity: Shay ulcer. In kind it is in vivo. The settings on record: 300 mg/kg os.
The subject of a further data set is Wistar rats. The data set is described as follows: Sub-chronic toxicity (30 days per ora). In kind it is in vivo. The settings on record: oral 400 mg/kg. As for the experimental part: (2) Sub-chronic toxicity (C/63)
Eighty Wistar rats were divided in 4 groups of twenty each (10 males and 10 fewales). Compound (C/63) was given per ora to three groups of animals for a period of 30 days in quantities of 100, 200 and 400 mg/kg.

Data set [1] concerns Phenylbutazone-histamine ulcer. The data set is described as follows: Anti-ulcer activity: Phenylbutazone-histamine ulcer. In kind it is in vivo.
Data set [2] deals with Ulcer due to activity prevention. Kind of data set: Anti-ulcer activity: Ulcer due to activity prevention (Rossi & Coll.). In kind it is in vivo.
A further data set in a line: acute toxicity, mice. The settings on record: mouse, in vivo, read-out: DL/50 (the source's name).
For the next data set, the system named is Withdrawal ulcer. The data set is described as follows: Anti-ulcer activity: Withdrawal ulcer. In kind it is in vivo. The settings on record: 100 mg/kg os.
The test system of another data set is Guinea-pig Ileus. The data set is described as follows: spasmolytic activity in vitro, Guinea-pig Ileus.
In the next data set the test system is Reserpine ulcer. The data set is described as follows: Anti-ulcer activity: Reserpine ulcer with rats. In kind it is in vivo.

As for `O=C(CN1CCNCC1)NC1CCCCC1` [C/63, N-[1-piperazinylacetyl]-cyclohexylamine], the Inhibition % stood at 6% in the data set with intestine peristaltis (100 mg/kg os); 23% in the data set on intestine peristaltis (200 mg/kg os); 72% in the data set on Shay ulcer; 10% in data set [1] (25 mg/kg os); 43% in [1] (50 mg/kg os); 72% in [1] (100 mg/kg os). The Inhibition % in [2] (50 mg/kg os) came out at 19%; in data set [2] (100 mg/kg os) it was 32%; in data set [2] (200 mg/kg os) it was 45%; with Withdrawal ulcer, 33%; in the data set on Reserpine ulcer (300 mg/kg os), 25%. Also, the LD50 in the data set “acute toxicity, rats” came to 3900 mg/kg; in the data set “acute toxicity, mice” (iv), 271 mg/kg; in the data set “acute toxicity, mice” (po, os), 1970 mg/kg. In addition, in the data set on Wistar rats, the “appearance of damages due to toxicity (bloodcrasis, biochemical blood analysis, weight, histological examination of the organs)” value is listed as “no appearance of damages due to the toxicity of the drug”. Further, the “DE50 against Ach.” value with Guinea-pig Ileus (against Ach.) was over 40 µg/mL. Moreover, in the data set with Guinea-pig Ileus (against BaCl2), the “DE50 against BaCl2” value is over 40 µg/mL. Also, the DE50 against histamine in the data set with Guinea-pig Ileus (against histamine) was over 40 µg/mL.

In the case of `CC1CCC(NC(=O)CN2CCNCC2)CC1` (stereo not drawn) [C/82, N-(1-piperazinylacetyl)-4-methyl-cyclohexylamine], the anticholinergic activity entry in “anticholinergic activity” is reported as “no anticholinergic activity”. Besides, the Inhibition % came out at 33% in data set [1] (50 mg/kg os); 60% in [1] (100 mg/kg os); 30% in data set [2] (100 mg/kg os); 35% in data set [2] (200 mg/kg os); 30% in the data set on Withdrawal ulcer; 47% in the data set with Reserpine ulcer (100 mg/kg os). Further, the Inhibition % in the data set on Reserpine ulcer (300 mg/kg os) came out at 70%. Further, in the data set “acute toxicity, mice” (po, os), the LD50 was 1790 mg/kg.

The record behind these values is patent US4123530A, “N-cyclohexyl-piperazino acetamides and propionamides” (Camillo Corvi S.p.A., priority 1976, dated 1978).
